Experimental findings from ChEMBL document CHEMBL1148601, “Inhibition of cytosolic phospholipase A2alpha: hit to lead optimization” (J Med Chem, 2006) are described below.

Data set [1] deals with T1, Cytosolic phospholipase A2 (Homo sapiens, UniProt P47712).
T1 sequence (P47712 whole entry): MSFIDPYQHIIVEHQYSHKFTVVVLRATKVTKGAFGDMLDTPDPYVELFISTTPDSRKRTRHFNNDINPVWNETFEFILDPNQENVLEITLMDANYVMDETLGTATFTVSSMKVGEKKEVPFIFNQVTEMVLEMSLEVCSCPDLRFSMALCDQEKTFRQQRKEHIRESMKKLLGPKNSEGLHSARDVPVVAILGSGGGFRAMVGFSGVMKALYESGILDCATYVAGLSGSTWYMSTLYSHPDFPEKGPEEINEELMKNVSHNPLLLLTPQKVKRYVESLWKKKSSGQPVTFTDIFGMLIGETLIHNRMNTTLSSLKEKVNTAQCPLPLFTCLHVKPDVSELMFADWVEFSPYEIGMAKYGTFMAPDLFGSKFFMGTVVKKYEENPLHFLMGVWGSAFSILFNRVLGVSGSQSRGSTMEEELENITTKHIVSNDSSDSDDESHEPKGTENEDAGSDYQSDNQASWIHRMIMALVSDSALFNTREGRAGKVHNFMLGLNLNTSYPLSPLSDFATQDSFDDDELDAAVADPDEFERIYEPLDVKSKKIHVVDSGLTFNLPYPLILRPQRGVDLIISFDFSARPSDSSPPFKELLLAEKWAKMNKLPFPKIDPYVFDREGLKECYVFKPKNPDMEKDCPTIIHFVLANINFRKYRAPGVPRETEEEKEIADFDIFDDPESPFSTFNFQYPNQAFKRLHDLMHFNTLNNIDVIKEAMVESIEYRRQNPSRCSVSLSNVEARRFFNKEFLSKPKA
In words: Inhibition of cytosolic phospholipase A2-alpha in GLU micelle assay.

The nature of data set [2]: Inhibition of TXB2 production in Sprague-Dawley rat whole blood. The class given is functional, tissue-based.
A short description of data set [3]: Inhibition of LTB4 production in human whole blood. The class given is functional, tissue-based.
The nature of data set [4]: Inhibition of PGF2-alpha production in the presence of exogenous arachidonic acid in MC9 cells at 0.5 uM. In kind it is functional. As to conditions: Mus musculus.
A short description of data set [5]: Inhibition of TXB2 production in human whole blood. The class given is functional, tissue-based.
The nature of data set [6]: Plasma concentration in rat. In kind it is ADME, organism-based.
Data set [7] is described as follows: Inhibition of PGF2-alpha production in MC9 cells at 0.5 uM. The class given is functional. As to conditions: Mus musculus.
The nature of data set [8]: Oral bioavailability in rat. In kind it is ADME, organism-based. As to conditions: in vivo.
Data set [9] can be described thus: Inhibition of LTB4 production in MC9 cells at 0.5 uM. As to conditions: Mus musculus. In kind it is functional.
Data set [10] can be described thus: Inhibition of LTB4 production expressed in MC9 cells in presence of 4 megacells/mL. As to conditions: Mus musculus. The class given is functional, cell-based.

For `Cc1c(CCS(=O)(=O)c2ccc(C(=O)O)cc2)c2cc(F)ccc2n1C(c1ccccc1)c1ccccc1`, the IC50 in data set [1] was 1 µM; in data set [2] it was 5 µM.
Consider `Cc1c(CCOc2ccc(C(=O)O)cc2Cl)c2cc(Cl)ccc2n1C(c1ccccc1)c1ccccc1`, for which the 50% inhibitory concentration (IC50) in data set [1] came to 11 µM; in data set [2] it was 25 µM.
Take `COC(=O)c1ccc(OCCc2c(C(C)(C)C)n(C(c3ccccc3)c3ccccc3)c3ccc(Cl)cc23)cc1`: the IC50 in data set [1] was 20 µM; in data set [2], above 25 µM.
For `Cc1c(CCOc2cc(C(=O)O)on2)c2cc(Cl)ccc2n1C(c1ccccc1)c1ccccc1`, in that order: 40 µM and above 50 µM.
For `Cc1c(CCCCOc2ccc(C(=O)O)cc2)c2cc(Cl)ccc2n1C(c1ccccc1)c1ccccc1` the same measures were 2 µM and 9 µM.
For `Cc1c(CCS(=O)(=O)c2ccc(C(=O)O)cc2)c2ccccc2n1C(c1ccccc1)c1ccccc1` the same measures were 2 µM and 6 µM.
In data set [1], `COc1c(Cc2cn(C(c3ccccc3)c3ccccc3)c3cc(Cl)ccc23)cccc1C(=O)O` had an IC50 of 120 µM.
Regarding `O=C(O)c1ccc(OCCc2c(-c3ccccc3)n(C(c3ccccc3)c3ccccc3)c3ccc(Cl)cc23)cc1`, the IC50 in data set [1] and in data set [2] was above 50 µM each time.
Consider `Cc1c(C(=O)C(=O)Nc2ccc(C(=O)O)cc2)c2cc(Cl)ccc2n1C(c1ccccc1)c1ccccc1`, for which the IC50 came out at 26 µM in data set [1] and 25 µM in data set [2].
For `Cc1c(CCSc2ccc(C(=O)O)cc2)c2cc(Cl)ccc2n1C(c1ccccc1)c1ccccc1` the same measures were 2 µM and 10 µM.
With `Cc1c(CCOc2ccc(C(=O)O)cc2)c2cc(Br)ccc2n1C(c1ccccc1)c1ccccc1`, the results for the IC50 in [1] and in [2] were 2 µM and 3 µM, respectively.
For `COc1ccc2c(c1)c(CCS(=O)(=O)c1ccc(C(=O)O)cc1)c(C)n2C(c1ccccc1)c1ccccc1` the same measures were 3 µM and 7 µM.
For `Cc1c(CCOc2ccc(C(=O)O)cc2)c2ccc(Cl)cc2n1C(c1ccccc1)c1ccccc1`, in that order: 6 µM and 13 µM.
Turning to `Cc1c(CCS(=O)(=O)c2ccc(C(=O)O)cc2)c2cc(Cl)ccc2n1C(c1ccccc1)c1ccccc1`, the IC50 worked out at 6.3 µM in data set [3], 8.4 µM in data set [5], 0.8 µM in [1] and 2 µM in data set [2]. Moreover, the results for the inhibition at 0.5 µM in data set [4], in data set [7] and in data set [9] were 8%, 72% and 82%, respectively. The compound further gave a clearance in data set [6] of 2.64 L/h/kg. For the same compound, the bioavailability in data set [8] was determined as 39%.
For the compound `Cc1c(CCOc2ccc(C(=O)O)cc2)c2cc(N3CCOCC3)ccc2n1C(c1ccccc1)c1ccccc1`, the IC50 in [1] was 22 µM; in data set [2] it was above 10 µM.
For `Cc1c(CCOc2ccc(C(=O)O)cc2)c2cc(-c3ccccc3)ccc2n1C(c1ccccc1)c1ccccc1`, in that order: 33 µM and 9 µM.
For the compound `Cc1c(CCCc2ccc(C(=O)O)cc2)c2cc(Cl)ccc2n1C(c1ccccc1)c1ccccc1`, the IC50 in data set [1] was found to be 2 µM.
On to `O=C(O)c1ccc(OCC(O)COc2ccc(SCCCCCc3ccccc3)cc2)cc1` (configuration not stated), for which the IC50 in data set [1] was 340 µM; in data set [2], above 100 µM.
For `Cc1c(CCS(=O)(=O)CCc2ccc(C(=O)O)cc2)c2cc(Cl)ccc2n1C(c1ccccc1)c1ccccc1` the same measures were 93 µM and 14 µM.
On to `Cc1c(CCS(=O)(=O)c2ccc(C(=O)O)cc2)c2c(Cl)c(Cl)ccc2n1C(c1ccccc1)c1ccccc1`, for which the IC50 in data set [1] worked out at 1 µM; in data set [2] it was 4 µM.
For `Cc1c(CCOc2cccc(C(=O)O)c2)c2cc(Cl)ccc2n1C(c1ccccc1)c1ccccc1` the same measures were 120 µM and above 50 µM.
For `Cc1c(CC[S+]([O-])CCc2ccc(C(=O)O)cc2)c2cc(Cl)ccc2n1C(c1ccccc1)c1ccccc1` (configuration not stated), in that order: 18 µM and 25 µM.
`O=C(O)c1cccc(CC(O)Cc2cn(C(c3ccccc3)c3ccccc3)c3cc(Cl)ccc23)c1` (configuration not stated) gave an IC50 in data set [1] of 90 µM.
With `Cc1c(CC(=O)O)c2cc(Cl)ccc2n1C(c1ccccc1)c1ccccc1`, the IC50 was 165 µM in [1] and below 100 µM in data set [2].
For `Cc1c(CCOc2ccc(CCC(=O)O)cc2)c2cc(Cl)ccc2n1C(c1ccccc1)c1ccccc1`, in that order: 3 µM and 2 µM.
For `Cc1c(CCC(=O)NCc2ccc(C(=O)O)cc2)c2cc(Cl)ccc2n1C(c1ccccc1)c1ccccc1` the same measures were 30 µM and 50 µM.
For `Cc1c(CCOc2ccc(C(=O)O)cc2)c2cc([N+](=O)[O-])ccc2n1C(c1ccccc1)c1ccccc1` the same measures were 5 µM and 8 µM.
On to `Cc1c(CCOC(=O)Nc2ccc(C(=O)O)cc2)c2cc(Cl)ccc2n1C(c1ccccc1)c1ccccc1`, for which the IC50 in [1] was found to be 38 µM; in data set [2], 13 µM.
For the compound `O=C(COc1ccc(SCCCCCc2ccccc2)cc1)COc1ccc(C(=O)O)cc1`, the IC50 in data set [1] turned out to be 0.04 µM; in data set [2], 12 µM; in [10], 1.5 µM.
For `Cc1c(CCOc2ccc(C(=O)O)c(Cl)c2)c2cc(Cl)ccc2n1C(c1ccccc1)c1ccccc1`, the IC50 in data set [1] was found to be 7 µM; in data set [2], 25 µM.
For `Cc1c(CC[S+]([O-])c2ccc(C(=O)O)cc2)c2cc(Cl)ccc2n1C(c1ccccc1)c1ccccc1` (configuration not stated) the same measures were 1 µM and 3 µM.
For the compound `Cc1c(CCS(=O)(=O)c2ccc(C(=O)O)cc2)c2ccc(Cl)cc2n1C(c1ccccc1)c1ccccc1`, the IC50 in data set [1] was determined as 4 µM; in [2], 5 µM.
For `Cc1c(CCNc2ccc(C(=O)O)cc2)c2cc(Cl)ccc2n1C(c1ccccc1)c1ccccc1`, in that order: 23 µM and above 25 µM.
On to `Cc1c(CCS(=O)(=O)c2ccc(C(=O)O)cc2)c2c(Cl)cccc2n1C(c1ccccc1)c1ccccc1`, for which the IC50 was 2 µM in data set [1] and 12 µM in data set [2].
For `Cc1c(CCS(=O)(=O)c2ccc(C(=O)O)cc2)c2cc(Cl)c(Cl)cc2n1C(c1ccccc1)c1ccccc1`, in that order: 3 µM and 2 µM.
As to `O=C(O)c1ccc(OCC(O)Cc2cn(C(c3ccccc3)c3ccccc3)c3cc(Cl)ccc23)cc1` (configuration not stated), the values for the half-inhibitory concentration (IC50) in [1] and in data set [2] were 40 µM and 100 µM, respectively.
For `Cc1c(CCOc2ccc(CCCC(=O)O)cc2)c2cc(Cl)ccc2n1C(c1ccccc1)c1ccccc1` the same measures were 20 µM and 50 µM.
For `O=C(O)c1ccc(OCCc2cn(C(c3ccccc3)c3ccccc3)c3ccc(Cl)cc23)cc1` the same measures were 5 µM and 14 µM.
For `Cc1c(CCS(=O)(=O)c2ccc(C(=O)O)cc2)c2cccc(Cl)c2n1C(c1ccccc1)c1ccccc1` the same measures were 6 µM and 10 µM.
For `Cc1c(CCOc2ccc(C(=O)O)c(F)c2)c2cc(Cl)ccc2n1C(c1ccccc1)c1ccccc1`, the IC50 turned out to be 2 µM in data set [1] and 8 µM in data set [2].
For `Cc1c(CCOc2ccc(CC(=O)O)cc2)c2cc(Cl)ccc2n1C(c1ccccc1)c1ccccc1`, in that order: above 10 µM and 48 µM.

By IC50 is commonly meant the concentration that inhibits the measured activity by half. The inhibition is the share of the control response that was lost under treatment. For orientation: clearance means a measure of how efficiently the substance is removed, as volume per time. A higher clearance goes with a high capacity for elimination. Usually bioavailability stands for the share of a dose that reaches the circulation, judged against a reference dose that is usually intravenous.
